Experimental data reported in PMC11456916, “A screen for cell envelope stress uncovers an inhibitor of prolipoprotein diacylglyceryl transferase, Lgt, in Escherichiacoli” (iScience, 2024).
“Also recorded” adds a separate entry of the source.

Tests used:
E. coli ΔtolC-pore = test: Live cell fluorescence microscopy, cell width; format: cell-based; conditions: increasing concentrations, 1 h, DAPI and FM4-64 stain
Description: Figure 4 MAC-0452936 inhibited prolipoprotein diacylglyceryl transferase, Lgt (A) Growth inhibition of E. coli ΔtolC-pore, three independent MAC-0452936 resistance mutants with a V109A substitution in Lgt (2,959,071A→G), a mutant with an A37T substitution (2,959,288C→T), and a mutant with a G138A substitution (2,958,984C→G). The experiment was conducted in biological triplicate. Data are represented as mean ± SEM. (B) Structure of Lgt from E. coli with two phosphatidyl-glycerol (PG) moieties bound (PDB: 5AZB).[49] Mutated residues from spontaneous resistance mutants are highlighted in blue on proximal α-helices, with the blue sphere highlighting the space in between the mutated residues where both PG moieties reside. […] The width of at least 240 cells was measured at each MAC-0452936 concentration, with specific n values for each concentration of MAC-0452936 listed in the figure. […]
An overnight culture of E. coli ΔtolC-pore was prepared, then diluted (1:100) into fresh LB media and grown to the mid-exponential phase of growth (OD600 ∼0.5). […] Samples were imaged using a Nikon Eclipse Ti inverted microscope at 100× magnification, with a minimum of 200 cells counted per image. Images were quantified with ImageJ, using the following macro. […]

[1] = system: E. coli ΔlgtΔtolC-pore pCHAP9231; test: MIC with arabinose-titrated lgt expression; format: cell-based; conditions: lgt expression driven solely by arabinose from pCHAP9231
Source text: We next turned to genetic approaches to confirm the mechanism of action of MAC-0452936. […] To that end, we screened the E. coli CRISPRi collection in the ΔtolC-pore genetic background with a sub-inhibitory concentration of MAC-0452936 and measured the fitness of all 356 CRISPRi mutants (Figure 4C and Data S4). […] Depletion of Lgt by CRISPRi provided supporting evidence that MAC-0452936 targeted Lgt in E. coli; however, we sought to confirm this observation using a parallel genetic approach. We hypothesized that MAC-0452936 potency would also be affected by high-copy expression of lgt. To that end, we introduced either an arabinose inducible copy of lgt supplied on the pCHAP9231 plasmid[48] or the pBAD19s plasmid as a control into E. coli ΔtolC-pore and tested the potency of MAC-0452936 (Figure 4E). Induction of lgt expression with arabinose suppressed the activity of MAC-0452936 by about 8-fold. […] To test this hypothesis, we constructed E. coli ΔlgtΔtolC-pore with pCHAP9231[48] so that lgt expression was driven solely by arabinose from the plasmid. […] To test this observation with MAC-0452936, we introduced an lpp deletion into our screening strain E. coli ΔtolC-pore and assessed the activity of our Lgt inhibitor in this mutant background. […]

COc1ccc(C(=O)O/N=C(\c2cccs2)C(C)(C)C)cc1 [MAC-0452936, (Z)-2-Pivaloylthiophene O-(4-methoxybenzoyl) oxime]
effect on cell width and morphology (E. coli ΔtolC-pore): dose-dependent increase in cell width
change of MIC with increasing arabinose concentrations [1]: dose-dependent increase in the MIC; also recorded: increase with increasing
